Data published in ChEMBL document CHEMBL4351028, “Benzoyl indoles with metabolic stability as reversal agents for ABCG2-mediated multidrug resistance” (Eur J Med Chem, 2019).
The source made the active and inactive calls. No cut-off for these calls is given here.

Key:
NCI-H460 [1] = assay: Cytotoxicity against human NCI-H460 cells assessed as concentration that causes inhibition of cell viability by <=20% incubated for 24 hrs by MTT assay; assay type: cell-based; settings: nci-h460, 24 h
[2] = Cytotoxicity against human NCI-H460/MX20 cells assessed as concentration that causes inhibition of cell viability by <=20% incubated for 24 hrs by MTT assay; assay type: cell-based
NCI-H460 [3] = assay: Cytotoxicity against human NCI-H460 cells assessed as inhibition of cell viability incubated for 2 hrs by MTT assay; assay type: cell-based; settings: NCI-H460, 2 h
[4] = Cytotoxicity against human NCI-H460/MX20 cells assessed as inhibition of cell viability incubated for 2 hrs by MTT assay; assay type: cell-based; settings: NCI-H460/MX20, 2 h
[5] = biological target: T1, Broad substrate specificity ATP-binding cassette transporter ABCG2 (Homo sapiens, UniProt Q9UNQ0); assay: (§1) Reversal of ABCG2-mediated multidrug resistance in human NCI-H460/MX20 cells assessed as potentiation of mitoxantrone-induced cytotoxicity by measuring inhibition of cell proliferation at 10 uM pretreated for 2 hrs followed by mitoxantrone addition and measured after 44 hrs by MTT assay (reference value: 24 +/- 3%); assay type: cell-based; settings: for inhibition (INH): 10 µM
T1 sequence (Q9UNQ0 whole entry): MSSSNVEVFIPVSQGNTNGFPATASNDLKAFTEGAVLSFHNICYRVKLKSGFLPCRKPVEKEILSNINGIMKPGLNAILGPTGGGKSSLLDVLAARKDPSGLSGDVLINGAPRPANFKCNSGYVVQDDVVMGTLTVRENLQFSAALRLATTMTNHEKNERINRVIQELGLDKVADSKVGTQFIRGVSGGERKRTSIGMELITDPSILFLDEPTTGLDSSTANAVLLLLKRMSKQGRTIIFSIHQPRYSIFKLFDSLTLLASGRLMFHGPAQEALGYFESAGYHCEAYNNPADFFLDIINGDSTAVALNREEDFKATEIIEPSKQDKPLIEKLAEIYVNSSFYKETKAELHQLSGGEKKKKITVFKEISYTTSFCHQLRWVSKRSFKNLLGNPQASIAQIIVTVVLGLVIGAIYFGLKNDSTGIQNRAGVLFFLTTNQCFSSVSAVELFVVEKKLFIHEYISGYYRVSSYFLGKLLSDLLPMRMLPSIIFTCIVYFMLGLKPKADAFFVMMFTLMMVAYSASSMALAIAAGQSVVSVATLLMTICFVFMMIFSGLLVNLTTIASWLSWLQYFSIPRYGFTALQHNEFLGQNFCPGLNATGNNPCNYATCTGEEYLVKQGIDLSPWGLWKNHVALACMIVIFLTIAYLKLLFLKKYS

[6] = biological target: T1, Broad substrate specificity ATP-binding cassette transporter ABCG2; assay: as §1, with “25” for “10”; assay type: cell-based; settings: for inhibition (INH): 25 µM
[7] = biological target: T1, Broad substrate specificity ATP-binding cassette transporter ABCG2; assay: Reversal of ABCG2-mediated multidrug resistance in human NCI-H460/MX20 cells assessed as potentiation of mitoxantrone-induced cytotoxicity by measuring inhibition of cell proliferation pretreated for 2 hrs followed by mitoxantrone addition and measured after 44 hrs by MTT assay; assay type: cell-based
[8] = biological target: T1, Broad substrate specificity ATP-binding cassette transporter ABCG2; assay: as §1, with “1” for “10”; assay type: cell-based
[9] = Metabolic stability in human liver microsomes assessed as compound remaining at 100 uM incubated for 1 hr by HPLC analysis; assay type: ADME, Microsome; settings: read-out: Stability
HEK293 [10] = assay: Reversal of ABCG2 482-G2 mutant (unknown origin) expressed in HEK293 cells-mediated multidrug resistance assessed as potentiation of mitoxantrone-induced cytotoxicity at 5 uM pretreated for 2 hrs followed by mitoxantrone addition and measured after 44 hrs by MTT assay; assay type: cell-based; settings: Homo sapiens
HEK293 [11] = assay: Reversal of ABCG2 482-T7 mutant (unknown origin) expressed in HEK293 cells-mediated multidrug resistance assessed as potentiation of mitoxantrone-induced cytotoxicity at 5 uM pretreated for 2 hrs followed by mitoxantrone addition and measured after 44 hrs by MTT assay; assay type: cell-based; settings: Homo sapiens

| Structure (SMILES) | Activity (NCI-H460 [1]) [µM] | Activity [2] [µM] | IC50 (NCI-H460 [3]; read-out: IC50) [µM] | IC50 [4] [µM] | also measured |
| --- | --- | --- | --- | --- | --- |
| O=C(c1c(O)cccc1O)c1c[nH]c2ccc(O)cc12 | 10 | 10 | > 100 | > 100 |  |
| O=C(c1cc(O)c(O)c(O)c1)c1c[nH]c2cccc(O)c12 | 25 | 25 | > 100 | > 100 |  |
| COc1ccc(C(=O)c2c[nH]c3c(OC)cccc23)c(OC)c1 | 10 | 10 | > 100 | > 100 | inhibition (INH) [5]: Active |
| COc1ccc(C(=O)c2c[nH]c3cccc(OC)c23)c(OC)c1 | 25 | 25 | > 100 | > 100 | inhibition (INH) [6]: Active |
| O=C(c1cc(O)c(O)c(O)c1)c1c[nH]c2ccc(O)cc12 | 25 | 25 | > 100 | > 100 |  |
| O=C(c1ccc(O)cc1)c1c[nH]c2cccc(O)c12 | 25 | 25 | > 100 | > 100 | inhibition at 25 µM [6]: > 87%; inhibition (INH) [7]: Dose-dependent effect |
| O=C(c1cccc(O)c1)c1c[nH]c2ccc(O)cc12 | 25 | 25 | > 100 | > 100 |  |
| COc1ccc2[nH]cc(C(=O)c3c(OC)cccc3OC)c2c1 | 1 | 1 | > 100 | > 100 | inhibition (INH) [8]: Active |
| COc1ccc2[nH]cc(C(=O)c3ccccc3OC)c2c1 | 1 | 1 | 46.2 | 61.9 | inhibition (INH) [8]: Active |
| O=C(c1ccc(O)cc1O)c1c[nH]c2c(O)cccc12 | 10 | 10 | > 100 | > 100 |  |
| O=C(c1ccc(O)cc1O)c1c[nH]c2ccc(O)cc12 | 25 | 25 | > 100 | > 100 | inhibition (INH) [6]: Active |
| COc1ccc(C(=O)c2ccc3[nH]cc(C(=O)c4ccc(OC)cc4OC)c3c2OC)c(OC)c1 | 25 | 25 | > 100 | 68.7 | inhibition at 25 µM [6]: > 87%; inhibition (INH) [7]: Dose-dependent effect |
| O=C1c2c(O)ccc(O)c2C(=O)c2c(NCCNCCO)ccc(NCCNCCO)c21 [MITOXANTRONE] |  |  |  | 40.6 | IC50 (NCI-H460 [3]): 0.36 µM |
| O=C(c1ccc(O)cc1)c1c[nH]c2ccc(O)cc12 | 25 | 25 | > 100 | > 100 | inhibition (INH) [6]: Active |
| O=C(c1ccccc1O)c1c[nH]c2ccc(O)cc12 | 25 | 25 | > 100 | > 100 | inhibition at 25 µM [6]: > 87%; inhibition (INH) [7]: Dose-dependent effect |
| COc1ccc(C(=O)c2c(OC)ccc3cc(OC)ccc23)c(OC)c1 | 10 | 10 | 86.2 | 84 | inhibition (INH) [6]: Not Active |
| O=C(c1ccc(O)cc1)c1ccc2[nH]cc(C(=O)c3ccc(O)cc3)c2c1O | 25 | 25 | > 100 | > 100 |  |
| COc1ccc(C(=O)c2c[nH]c3ccc(OC)cc23)c(OC)c1 | 25 | 25 | > 100 | > 100 | inhibition (INH) [6]: Active |
| COc1ccc(C(=O)c2c[nH]c3cccc(OC)c23)cc1 | 10 | 10 | > 100 | > 100 | inhibition (INH) [5]: Active |
| COc1cc(C(=O)c2c[nH]c3cccc(OC)c23)cc(OC)c1OC | 1 | 1 | > 100 | > 100 | inhibition (INH) [8]: Active |
| O=C(c1ccc(O)cc1O)c1c[nH]c2cccc(O)c12 | 25 | 25 | > 100 | > 100 | inhibition at 25 µM [6]: > 87%; inhibition (INH) [7]: Dose-dependent effect |
| COc1cccc(C(=O)c2c[nH]c3ccc(OC)cc23)c1 | 10 | 10 | > 100 | 53.2 | inhibition at 10 µM [5]: > 87%; inhibition (INH) [7]: Dose-dependent effect |
| COc1ccc2c3c([nH]c2c1)[C@H](CC(C)C)N1C(=O)[C@H](CCC(=O)OC(C)(C)C)NC(=O)[C@@H]1C3 |  |  |  |  | remaining at 1 h, 100 µM [9]: 23%; Activity (HEK293 [10]): Active; Activity (HEK293 [11]): Active |
| COc1ccc2[nH]cc(C(=O)c3cc(OC)c(OC)c(OC)c3)c2c1 | 1 | 1 | 4.9 | 5.82 | inhibition (INH) [8]: Active |
